Earlier results as cited in patent US8865644B2, “Rapamycin formulation using recombinant high-density lipoprotein including apolipoprotein A-I and a mutant thereof” (Industry-Academic Cooperation Foundation, Yeungnam …, priority 2010, dated 2014).

For `CO[C@H]1C[C@@H]2CC[C@@H](C)[C@@](O)(O2)C(=O)C(=O)N2CCCC[C@H]2C(=O)O[C@H]([C@H](C)C[C@@H]2CC[C@@H](O)[C@H](OC)C2)CC(=O)[C@H](C)/C=C(\C)[C@@H](O)[C@@H](OC)C(=O)[C@H](C)C[C@H](C)/C=C/C=C/C=C/1C` [rapamycin], the “solubility in water, aliphatic hydrocarbon and diethylether” value is given as “hardly dissolved”.
